Data: patent US11198869B2, “Angelman syndrome antisense treatment” (The Texas A&M University System, priority 2017, dated 2021)

Assays:
UBE3A [1] = experiment: UBE3A steady state RNA (qRT-PCR) in GABAergic iPSC-derived neurons; format: cell-based, human; details: 10-point dose curve 1 nM-30 μM; 14 DIV to 20 DIV
SNORD115 = SNORD115 steady state RNA (qRT-PCR) in GABAergic iPSC-derived neurons; details: 10-point dose curve 1 nM-30 μM; 14 DIV to 20 DIV
UBE3A [2] = experiment: RNA-sequencing of Angelman syndrome iPSC neurons: UBE3A; format: cell-based, human; details: 30 μM; six days post-treatment; RNA-seq
Procedure: RNA was isolated using Qiagen RNAeasy Plus (74136, Qiagen, Hilden, Germany). RNA concentration was determined using Qubit Fluorometric Quantitation (Thermo Fisher Scientific) and RNA quality was assessed using a 4200 Agilent TapeStation (Agilent, Santa Clara, Calif.). RNA-sequencing libraries were generated using the Illumina TruSeq Stranded Total RNA kit (20020597, Illumina, Inc., San Diego, Calif.) according to the manufacturer's protocol. 75 base-pair paired-end sequencing was performed using a NextSeq 500 (IIlumina, San Diego, Calif.) at the Texas A&M Institute for Genome Sciences and Society Genomics core. Raw sequencing reads were processed using CASAVA. The resulting FASTQ sequences were examined using FASTQC. […]
(§1) To determine whether ASO-4.4.PS.L and ASO-6.1.PO-1.O affect the levels of RNA transcripts encoded by the PWS polycistronic transcript, RNA-sequencing was performed on AS iPS cells treated with each ASO and the steady state RNA levels of SNURF, SNRPN, the SNORD116 host-gene transcript (SNHG116), the SNORD116 snoRNAs, IPW, the SNORD115 host-gene transcript (SNHG115), the SNORD115 snoRNAs, and UBE3A-AS were quantified. UBE3A steady state RNA levels were also measured. […]

IPW = experiment: RNA-sequencing of Angelman syndrome iPSC neurons: IPW; format: cell-based, human; details: 30 μM, RNA-seq; for Difference, IPW RNA level relative to vehicle: six days post-treatment
Procedure: RNA was isolated using Qiagen RNAeasy Plus (74136, Qiagen, Hilden, Germany). RNA concentration was determined using Qubit Fluorometric Quantitation (Thermo Fisher Scientific) and RNA quality was assessed using a 4200 Agilent TapeStation (Agilent, Santa Clara, Calif.). RNA-sequencing libraries were generated using the Illumina TruSeq Stranded Total RNA kit (20020597, Illumina, Inc., San Diego, Calif.) according to the manufacturer's protocol. 75 base-pair paired-end sequencing was performed using a NextSeq 500 (IIlumina, San Diego, Calif.) at the Texas A&M Institute for Genome Sciences and Society Genomics core. Raw sequencing reads were processed using CASAVA. The resulting FASTQ sequences were examined using FASTQC.
Angelman syndrome induced pluripotent stem cells derived neurons Angelman syndrome iPS cells (AG1-0 iPSCs) (ECN001, Kerafast, Boston, Mass.) were co-cultured on irradiated murine embryonic fibroblasts in human embryonic stem cell medium [DMEM/F12 (11330-057, Gibco Biosciences, Dublin, Ireland), 20% Knockout Serum Replacement (10828-028, Thermo Fisher Scientific), 1× Non-essential amino acids, 2 mM L-glutamine, […] 2-Mercaptoethanol, and 4 μg/mL basic Fibroblast Growth Factor]. […]
as §1
Normalized FPKM (fragments per […] per million) values of the RefSeq gene annotation will be estimated using Cuffnorm with the default settings and the following option: −u. The FPKM values of each gene annotation was determined for each sample from the output file and used for descriptive and inferential statistics.

Compound	effect on total UBE3A RNA levels (in words) (UBE3A [1])	effect on SNORD115 RNA levels (in words) (SNORD115)	Difference, UBE3A RNA level relative to vehicle (UBE3A [2])	Difference, IPW RNA level relative to vehicle (IPW)	reduction of IPW levels (IPW; effect not significant) [fold]
U^O*A^O*G^O*A^O*A^O*t*g*g*c*a*c*a*t*c*t*C^O*U^O*U^O*G^O*G^O [ASO-4]	increased total UBE3A RNA levels in a dose-dependent manner	significant effect on the RNA levels of IPW, SNORD115, and SNORD109A/B but not in a dose dependent manner	–	–	–
C^O*U^O*G^O*G^O-t*g*t*c*a*a*c*a*a*g-C^O*C^O*A^O*A^o [ASO-6.1.PO-1.O]	–	–	0.74	0.18	–
A^L*G^L*A^L*a*t*g*g*c*a*c*a*t*c*t*5mC^L*T^L*T^L*G^L (NNNATGGCACATCTNNNN; LNA gapmer, PS, 5-methylcytosine, chemistry not fully specified) [ASO-4.4.PS.L]	–	–	0.90	−0.49	1.5
CC[C@@]1(O)C(=O)OCc2c1cc1n(c2=O)Cc2cc3c(CN(C)C)c(O)ccc3nc2-1 [Topotecan, reference compound]	increased total UBE3A RNA levels in a dose-dependent manner, except for Topotecan at higher concentrations	significant effect on SNORD116, IPW, SNORD115, and SNORD109A/B RNA levels that was dose dependent	–	–	–
